Patent publication US20260007730A1, “HUMAN CTLA-4 PEPTIDE VACCINES AND USES THEREOF” (Ohio State Innovation Foundation, priority 2022, published 2026)
Where no end group is shown, it is not given here. [ ]: non-standard residue; d: D form.

Columns and labels:
Format in all cases: in vivo, BALB/c mice
[1] = tested on: CT26 tumor cells; test: CTLA-4 peptide mimics in CT26-BALB/c tumor model (V32); settings: CT26, 200 ug peptide mimic from day 1, Day 14
Procedure: 6-8 weeks old BALB/c mice were challenged with 1×10^5 per mouse CT26 tumor cells (FIG. 6A). After tumor challenge, the positive control group, we treat the mice with anti-mouse CTLA-4 antibody (clone 9H10) twice a week, start from day 1 post tumor challenge and the negative control group was treated with PBS. For the CTLA-4 peptide mimic treatment groups, mice were treated with 200 ug peptide mimics as indicated start from day 1 post tumor challenging. All the mice had been treated at day 1, day 2, day 5, day 7, day 9, day 12, day 14, and day 16 post tumor challenge. The immunogenicity (antibody titer) was under detectable. Tumor volume was calculated as: Tumor volume (LWW)=(Length×Width×Width)/2
Mice challenged with tumor cells were monitored at least twice per week and tumor sizes were measured by calipers. Formula: Volume (LWW)=(Length×Width×Width)/2 was used to calculate tumor volumes. […] Data statistical analysis was performed by GraphPad Prism 8.1.2 (GraphPad Software, Inc. San Diego, CA, USA) and the indicated statistical analysis. One-way analysis of variance (one-way ANOVA) and followed by the Tukey's multiple comparisons test were used to compare data in multiple groups or data between groups in multiple groups. And the two-way ANOVA was used to analysis the whole curves comparison. The Log-rank (Mantel-Cox) test was use to compare the survival curves. […]

[2] = tested on: D2F2 mammary tumor cells; test: CTLA-4 peptide vaccines in D2F2-BALB/c tumor model; settings: for survival versus PBS group (Log-rank test): D2F2
Procedure: (§1) 6-8 weeks old BALB/c mice were vaccinated with MVF-CTLA-4 (59), MVF-CTLA-4 (75), MVF-CTLA-4 (92) or MVF-CTLA-4 (130) for 3 weeks interval. 0.1 mg peptide cancer vaccine mixed with ISA 720 (1:1) used per mouse (FIG. 5A). Mice were boosted with the designed doses for every 3 weeks intervals. Blood was collected weekly for monitoring antibody titers. After 2 weeks of the third time immunization (3Y), mice were challenged with 2×10^5 per mouse D2F2 mammary tumor cells.
After tumor challenge, the positive control group, we treat the mice with anti-mouse CTLA-4 antibody (clone 9H10) twice a week for up to three weeks, and the negative control group was treated with PBS. Tumor volume was calculated as: Tumor volume (LWW)=(Length×Width×Width)/2.
(§2) Mice challenged with tumor cells were monitored at least twice per week and tumor sizes were measured by calipers. Formula: Volume (LWW)=(Length×Width×Width)/2 was used to calculate tumor volumes. […] Data statistical analysis was performed by GraphPad Prism 8.1.2 (GraphPad Software, Inc. San Diego, CA, USA) and the indicated statistical analysis. One-way analysis of variance (one-way ANOVA) and followed by the Tukey's multiple comparisons test were used to compare data in multiple groups or data between groups in multiple groups. And the two-way ANOVA was used to analysis the whole curves comparison. The Log-rank (Mantel-Cox) test was use to compare the survival curves. P value or adjusted p value less than 0.05 was accepted as statistically significant different.

[3] = tested on: CT26 colon carcinoma; test: CTLA-4 peptide vaccines in CT26-BALB/c tumor model
Procedure: as §1, with “mouse.” for “mouse (FIG. 5A).”, “titers.” for “titers. After 2 weeks of the third time immunization (3Y), mice were challenged with 2×10^5 per mouse D2F2 mammary tumor cells.”
After 2 weeks of the third time immunization (3Y), mice were challenged with 10^5 per mouse CT26 (FIG. 3A). After tumor challenge, the positive control group, we treat the mice with anti-mouse CTLA-4 antibody (clone 9H10) twice a week for up to three weeks, and the negative control group was treated with PBS. Tumor volume was calculated as: Tumor volume (LWW)=(Length×Width×Width)/2. Mean value of tumor growths in BALB/c mice were vaccinated with MVF-CTLA-4 (59), MVF-CTLA-4 (75), MVF-CTLA-4 (92) or MVF-CTLA-4 (130), PBS as negative control and anti-mouse CTLA-4 antibody (clone 9H10) as positive control. […] Individual mouse CT26 tumor growths in each group of mice were vaccinated with MVF-CTLA-4 (59), MVF-CTLA-4 (75), MVF-CTLA-4 (92) or MVF-CTLA-4 (130), PBS as negative control and anti-mouse CTLA-4 antibody (clone 9H10) as positive control (FIG. 3C).
as §2

[4] = tested on: 4T1 breast cancer cells; test: CTLA-4 peptide vaccines in 4T1-BALB/c tumor model; settings: for survival versus PBS group (Log-rank test): 4T1
Procedure: as §1, with “mouse.” for “mouse (FIG. 5A).”, “10^5” for “2×10^5”, “4T1 (FIG. 4A). After” for “D2F2 mammary”, “challenge, the positive control group, we treat the mice with anti-mouse CTLA-4 antibody (clone 9H10) twice a week for up to three weeks, and the negative control group was treated with PBS. Tumor volume was calculated as: Tumor volume (LWW)=(Length×Width×Width)/2” for “cells.”
as §2

Row | Molecule | survival versus PBS group (Log-rank test) [2] | tumor volume LWW versus PBS group ([2]; D2F2, day 14) | tumor volume LWW versus PBS group ([2]; D2F2, day 16) | tumor volume LWW versus PBS group ([2]; D2F2, day 19) | tumor volume LWW versus PBS group ([2]; D2F2, day 21) | tumor volume LWW versus PBS group ([3]; CT26, day 14) | tumor volume LWW versus PBS group ([3]; CT26, day 16) | survival versus PBS group (Log-rank test) [4] | tumor volume LWW versus PBS group ([4]; 4T1, day 14) | tumor volume LWW versus PBS group ([4]; 4T1, day 16) | further results
1 | H2N-YIQTGNGIGLYYPPPYMLEVK-CONH2 (H-[dY][dI][dQ][dT]G[dN]G[dI]G[dL][dY][dY][dP][dP][dP][dY][dM][dL][dE][dV][dK]-NH2; also: retro-inverso) [CTLA-4 (9) RIL (150-130)] | – | – | – | – | – | – | – | – | – | – | tumor volume, between groups comparison vs PBS (p or words) [1]: < 0.05
2 | KLLSLIKGVIVHRLEGVEGPSLEYASPGKATEVRVTVLRQA-CONH2 (KLLSLIKGVIVHRLEGVEGPSLEYASPGKATEVRVTVLRQA-NH2; not fully specified; printed as KLLSLIKGVIVHRLEGVEGPSLEYASPGKATEVRVTVLRQA-CONH2) [MVF-CTLA-4 (59)] | significant different longer survival | significantly smaller tumor size | significantly smaller tumor size | significantly smaller tumor size | significantly smaller tumor size | significant smaller tumor size | significant smaller tumor size | significant longer survival | significant smaller tumor size | significant smaller tumor size | tumor volume LWW versus PBS group ([3]; CT26, day 14, listed as CTLA-4 (59)): significantly smaller tumor size; tumor volume LWW versus PBS group ([3]; CT26, day 16, listed as CTLA-4 (59)): significantly smaller tumor size; tumor volume LWW versus PBS group ([4]; 4T1, day 14, listed as CTLA-4 (59)): significantly smaller tumor size; tumor volume LWW versus PBS group ([4]; 4T1, day 16, listed as CTLA-4 (59)): significantly smaller tumor size
3 | KLLSLIKGVIVHRLEGVEGPSLRQADSQVTEVCAATYMMG-CONH2 (KLLSLIKGVIVHRLEGVEGPSLRQADSQVTEVCAATYMMG-NH2; not fully specified; printed as KLLSLIKGVIVHRLEGVEGPSLRQADSQVTEVCAATYMMG-CONH2) [MVF-CTLA-4 (75)] | – | significantly smaller tumor size | significantly smaller tumor size | significantly smaller tumor size | significantly smaller tumor size | – | – | significant longer survival | significant smaller tumor size | significant smaller tumor size | tumor volume LWW versus PBS group ([4]; 4T1, day 14, listed as CTLA-4 (75)): significantly smaller tumor size; tumor volume LWW versus PBS group ([4]; 4T1, day 16, listed as CTLA-4 (75)): significantly smaller tumor size
4 | KLLSLIKGVIVHRLEGVE-GPSL-KVELMYPPPYYLGIGNGTQIY-CONH2 (KLLSLIKGVIVHRLEGVEGPSLKVELMYPPPYYLGIGNGTQIY-NH2; not fully specified; printed as KLLSLIKGVIVHRLEGVE-GPSL-KVELMYPPPYYLGIGNGTQIY-CONH2) [MVF-CTLA-4 (130)] | significant different longer survival | significantly smaller tumor size | significantly smaller tumor size | significantly smaller tumor size | significantly smaller tumor size | significant smaller tumor size | significant smaller tumor size | – | significant smaller tumor size | – | tumor volume LWW versus PBS group ([3]; CT26, day 14, listed as CTLA-4 (130)): significantly smaller tumor size; tumor volume LWW versus PBS group ([3]; CT26, day 16, listed as CTLA-4 (130)): significantly smaller tumor size; tumor volume LWW versus PBS group ([4]; 4T1, day 14, listed as CTLA-4 (130)): significantly smaller tumor size
5 | KLLSLIKGVIVHRLEGVEGPSLGNELTFLDDSICTGTSSGNQVNFHMSVVRARRNDSGTYL-CONH2 (not fully specified; printed as KLLSLIKGVIVHRLEGVEGPSLGNELTFLDDSICTGTSSGNQVNFHMSVVRARRNDSGTYL-CONH2) KLLSLIKGVIVHRLEGVEGPSLGNELTFLDDSICTGTSSGNQVNFHMSVVRARRNDSGTYL-NH2 | – | without difference | significantly smaller tumor size | significantly smaller tumor size | significantly smaller tumor size | significant smaller tumor size | significant smaller tumor size | – | – | significant smaller tumor size | tumor volume LWW versus PBS group ([3]; CT26, day 14, listed as CTLA-4 (92)): significantly smaller tumor size; tumor volume LWW versus PBS group ([3]; CT26, day 16, listed as CTLA-4 (92)): significantly smaller tumor size; tumor volume LWW versus PBS group ([4]; 4T1, day 16, listed as CTLA-4 (92)): significantly smaller tumor size
